Source: article PMC12833730, “Discovery of a First‐in‐Class Covalent Allosteric SHP1 Inhibitor with Immunotherapeutic Activity” (Angewandte Chemie (International Ed. in English), 2025)
“Also recorded” adds a separate entry of the source.

Legend:
[1] = test system: MC38 tumor immune infiltrates; experiment: Flow cytometry of MC38 tumor immune infiltrates; format: in vivo, C57BL/6 mice; settings: MC38 tumors
Protocol: Figure 5 M029 inhibits syngeneic MC38 tumor growth by promoting infiltration and activation of both T cells and NK cells in the tumor microenvironment. […] This T cell activation was further supported by i) the increased effector CD8^+ population in the tumor microenvironment. […] Statistical analyses were performed with Graphpad Prism software 10.4.2 through the student t test or the one‐way ANOVA test using Turkey post‐hoc comparison. *p < 0.05, **p < 0.01, ***p < 0.001, and ****p < 0.0001 were considered significant. Figures are plotted as average ± standard error of the mean (SEM).
To elucidate the mechanism by which M029 elicits its antitumor activity, we analyzed the immune cell population within the tumor samples. […] This observation is in line with earlier reports that SHP1 activity contributes to LAIR1‐mediated T cell exhaustion.^[ [91] ^]
For immune cell profiling in the tumor microenvironment, tumor samples were first reduced to single-cell suspensions by compressing the tumors through a 70 µm filter (Falcon, #352350) into cold 1× PBS supplemented with 5 mM EDTA using the plunger of a syringe (HSW, #4010-200V0). Samples were strained through a second filter and then re-suspended in cold blocking buffer made of 5% BSA, 0.5 mM EDTA, and a 1:1000 dilution of CD16/32. Samples were then incubated with following fluorophore-conjugated antibodies. CD4-488 (Biolegend #100423), CD8a-PE (Biolegend #100708), CD45-PeCy7 (Biolegend #103114), CD25-BV605 (Biolegend #102035), CD44-647 (Biolegend #103039), CD19-488 (Biolegend #115524), NK1.1-647 (Biolegend #108719), CD3-PeCy5 (Biolegend #100273), CD8-BV711 (Biolegend #100747), CD4-PeCy5 (Biolegend #100409), CD69-FITC (Biolegend #104505), FoxP3-488 (Biolegend #126405), Perforin-APC (Biolegend #154303), CD62L-BV605 (Biolegend #104437), TIM3-PerCP/Cy5.5 (Biolegend #134011), PD1-647 (Biolegend #109118), CD11b-BV711 (Biolegend #101241), CD206-FITC (Biolegend #141704), F4/80-647 (Biolegend #123122), CD86-PE (Biolegend #159203), CD11c-BV421 (Biolegend #117329), Ly6G-488 (Biolegend #127625), CD11b-APC (Biolegend #101211), Ly6C-PE (Biolegend #128007), F4/80-BV711 (Biolegend #123147), IL2-BV421 (Biolegend #503825), IFNγ-BV605 (Biolegend #505839), TNFα-APC (Biolegend #506307). The following antibodies were used for depletion studies: anti-CD8α (BioXCell #BE0061) and anti-NK1.1 (BioXCell #BE0036). Samples were incubated with antibodies at a 1:600 dilution in blocking buffer on ice for two hours. After staining, samples were washed and re-suspended in 5% BSA, 0.5 mM EDTA solution, then added to a 5 mL polystyrene tube for analysis (Falcon, #352235). Sample data was acquired using a BD LSRFortessa Cell Analyzer, and results were analyzed using FlowJo.

[2] = test system: LCK, PLCγ and ERK1/2 phosphorylation in Jurkat T cells; experiment: TCR-LCK signaling immunoblot; format: cell-based; settings: dose response
Protocol: (§1) Supernatants from lysed cells were reduced, treated with iodoacetamide to cap thiol residues, and digested by trypsin for bottom‐up proteomics analysis. […] LCK is the direct substrate of SHP1 and ERK1/2, and PLCγ is the downstream effector protein of LCK‐mediated TCR signaling. […] Statistical analyses were performed with Graphpad Prism software 10.4.2 through the one‐way ANOVA test using Turkey post‐hoc comparison. ****p < 0.0001 was considered significant.
(§2) To further confirm M029 cellular target engagement, we investigated the effect of M029 on T cell function. SHP1 plays a negative role in T cells, and deletion of SHP1 in T cells lowers the activation threshold and enhances antitumor immunity.^[ [30], [31], [32], [33] ^] Mechanistically, SHP1 attenuates T cell receptor (TCR) signaling via dephosphorylation of the lymphocyte‐specific protein tyrosine kinase LCK.^[ [31], [84], [85], [86] ^] T cell activation leads to increased expression and secretion of interleukin 2 (IL‐2)^[ [87] ^] while the removal of SHP1 in T cells enhances IL‐2 production, cell proliferation, and cytolysis capacity.^[ [30], [32] ^] Accordingly, we sought to assess the impact of targeting SHP1 with M029 on TCR‐LCK signaling and T cell activation. […] M029 also dose‐dependently promoted IL‐2 production (Figure 4c). […] These findings corroborate that the observed increase in LCK phosphorylation and its downstream signaling indeed resulted from SHP1 inhibition by M029.
Immunoblotting: Cultured cells were lysed with ice-cold lysis buffer (50 mM Tris, pH 8.0, 150 mM NaCl, 10% Glycerol, 1% Triton-X-100) supplied with phosphatase inhibitor (Bimake) and protease inhibitor mixture (Roche Applied Science). Equal amounts of protein were resolved by SDS-PAGE, transferred to a nitrocellulose membrane, and subjected to immunoblotting. […]

IL-2 in Jurkat T cells = experiment: IL-2 mRNA / production; format: cell-based; settings: dose response
Protocol: as §1, §2

## N#Cc1ccsc1NS(=O)(=O)c1ccc(NC(=O)CCl)cc1 [M029, 2-Chloro-N-(4-(N-(3-cyanothiophen-2-yl)sulfamoyl)phenyl)acetamide]
[1]
  late exhaustion T cells (PD1+TIM3+): a decline
  pre-exhausted PD1+TIM3− T cells: increased
[1]; 25 mg/kg
  activation marker CD25 on infiltrating CD8+ T cells: higher expression
  activation of tumor-infiltrating NK cells (CD69): significantly more activated
  cytotoxicity marker perforin on infiltrating CD8+ T cells: higher expression
  effector markers CD44+CD62L− on infiltrating CD8+ T cells: higher expression
  infiltration of cytotoxic CD8+ T cells: increased infiltration
[1]; 25 mg/kg, vs control
  increase of CD3+ T cells in tumor: ~33%
  increase of NK1.1+ NK cells in tumor: ~100%
[2]
  TCR-mediated phosphorylation of LCK, PLCγ and ERK1/2: upregulation; also recorded: dose dependently increased
IL-2 in Jurkat T cells
  IL-2 production / relative IL-2 mRNA level: increased; also recorded: promoted
